What follows are molecules tested against T1, glucosylceramide synthase (Homo sapiens, UniProt Q16739) (assay: Glucosylceramide synthase (GCS) enzyme assay, microsome fraction, C8 glucosylceramide quantified by Rapidfire MS/MS). Conditions: test compound 10 μM; 1.7 μM UDP-glucose, 3 μM C8 ceramide; room temperature 60 min; read-out: GCS enzyme inhibitory rate at 10 μM (%) (% of control).
T1 construct: made in house; host or cells: Expi293F cells (transient expression, pcDNA3.3-TOPO vector); microsome fraction used as enzyme source
T1 sequence (Q16739 1-394): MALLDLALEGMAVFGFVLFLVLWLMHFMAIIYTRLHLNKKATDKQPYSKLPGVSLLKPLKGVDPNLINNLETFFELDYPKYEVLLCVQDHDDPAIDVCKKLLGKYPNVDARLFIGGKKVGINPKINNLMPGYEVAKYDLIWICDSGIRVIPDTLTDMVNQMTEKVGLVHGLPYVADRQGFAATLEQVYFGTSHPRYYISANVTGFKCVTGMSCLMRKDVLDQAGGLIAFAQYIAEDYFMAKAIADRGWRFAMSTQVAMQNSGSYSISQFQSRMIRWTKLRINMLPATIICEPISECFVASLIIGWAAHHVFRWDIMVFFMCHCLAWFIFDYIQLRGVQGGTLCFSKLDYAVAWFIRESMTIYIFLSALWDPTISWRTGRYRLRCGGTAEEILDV
Format: biochemical
In short: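 Test compound, 10 μM final, was run against human GCS from transfected Expi293F microsome fractions, using substrate solution of 6 μM C8 ceramide (in DOPC liposomes) plus 3.4 μM UDP-glucose, pH 7.5 Tris buffer, 60 min, room temperature. Product C8 glucosylceramide measured by Rapidfire MS/MS against an internal standard, % inhibition referenced to no-enzyme and DMSO wells.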
Work on `O=C1c2ccnc(-c3ccc(F)cc3OCC(F)(F)F)c2CN1c1cnn(CC2(F)CC2)c1` [Example 213, 2-{1-[(1-fluorocyclopropyl)methyl]-1H-pyrazol-4-yl}-4-[4-fluoro-2-(2,2,2-trifluoroethoxy)phenyl]-2,3-dihydro-1H-pyrrolo[3,4-c]pyridin-1-one] yielded an inhibition at 10 µM of 94%.
With `COCc1ccc(N2Cc3c(ccnc3-c3ccc(F)cc3OCC(F)(F)F)C2=O)cc1` [Example 147, 4-[4-fluoro-2-(2,2,2-trifluoroethoxy)phenyl]-2-[4-(methoxymethyl)phenyl]-2,3-dihydro-1H-pyrrolo[3,4-c]pyridin-1-one] the inhibition at 10 µM was 94%.
Work on `CC(C)n1cc2c(c(-c3ccccc3OCC(F)(F)F)c1=O)CN(c1ccc(OCC(C)(C)O)cc1)C2=O` [Example 377, 2-[4-(2-hydroxy-2-methylpropoxy)phenyl]-5-(propan-2-yl)-7-[2-(2,2,2-trifluoroethoxy)phenyl]-1H-pyrrolo[3,4-c]pyridine-3,6(2H,5H)-dione] yielded an inhibition at 10 µM of 100%.
In the case of `CN(C)C(=O)c1ccc(N2Cc3c(ccnc3-c3ccccc3OCC(F)(F)F)C2=O)cc1` [Example 162, N,N-dimethyl-4-{1-oxo-4-[2-(2,2,2-trifluoroethoxy)phenyl]-1,3-dihydro-2H-pyrrolo[3,4-c]pyridin-2-yl}benzamide], the inhibition at 10 µM is reported as 95%.
For `CC(C)(O)c1ccc(N2Cc3c(cc(C(C)(C)O)nc3-c3ccccc3OCC(F)F)C2=O)cn1` [Example 363, 4-[2-(2,2-difluoroethoxy)phenyl]-6-(2-hydroxypropan-2-yl)-2-[6-(2-hydroxypropan-2-yl)pyridin-3-yl]-2,3-dihydro-1H-pyrrolo [3,4-c]pyridin-1-one], the inhibition at 10 µM was 97%.
`CC(C)(O)COc1ccc(N2Cc3c(ccnc3-c3ccccc3OCC(F)F)C2=O)cc1` [Example 366, 4-[2-(2,2-difluoroethoxy)phenyl]-2-[4-(2-hydroxy-2-methylpropoxy)phenyl]-2,3-dihydro-1H-pyrrolo [3,4-c]pyridin-1-one] was tested, and the inhibition at 10 µM was 99%.
In the case of `CC(C)(O)c1ccc(N2Cc3c(ccnc3-c3c(F)cc(F)cc3OCC(F)(F)F)C2=O)cc1` [Example 320, 4-[2,4-difluoro-6-(2,2,2-trifluoroethoxy)phenyl]-2-[4-(2-hydroxypropan-2-yl)phenyl]-2,3-dihydro-1H-pyrrolo[3,4-c]pyridin-1-one], the inhibition at 10 µM is reported as 99%.
Molecule `Cc1cc2c(c(-c3ccccc3OCC(F)(F)F)n1)CN(c1ccc(OCC3(O)CC3)cc1)C2=O` [Example 375, 2-{4-[(1-hydroxycyclopropyl)methoxy]phenyl}-6-methyl-4-[2-(2,2,2-trifluoroethoxy)phenyl]-2,3-dihydro-1H-pyrrolo[3,4-c]pyridin-1-one] has an inhibition at 10 µM of 100%.
`O=C(c1ccc(N2Cc3c(ccnc3-c3ccc(F)cc3OCC(F)(F)F)C2=O)cc1)N1CCC(F)(F)CC1` [Example 182, 2-[4-(4,4-difluoropiperidine-1-carbonyl)phenyl]-4-[4-fluoro-2-(2,2,2-trifluoroethoxy)phenyl]-2,3-dihydro-1H-pyrrolo[3,4-c]pyridin-1-one] was tested, and the inhibition at 10 µM was 99%.
Molecule `O=C1c2ccnc(-c3ccc(F)cc3OCC(F)(F)F)c2CN1c1ccc(O[C@H]2CCOC2)cc1` [Example 165, 4-[4-fluoro-2-(2,2,2-trifluoroethoxy)phenyl]-2-(4-{[(3S)-oxolan-3-yl]oxy}phenyl)-2,3-dihydro-1H-pyrrolo[3,4-c]pyridin-1-one] has an inhibition at 10 µM of 98%.
`Cc1cc2c(c(-c3ccccc3OCC(F)(F)F)n1)CN(c1ccc(C3(O)CCOCC3)cc1)C2=O` [Example 348, 2-[4-(4-hydroxyoxan-4-yl)phenyl]-6-methyl-4-[2-(2,2,2-trifluoroethoxy)phenyl]-2,3-dihydro-1H-pyrrolo[3,4-c] pyridin-1-one] gave an inhibition at 10 µM of 100%.
In the case of `Cc1cc2c(c(-c3ccccc3OCC(F)(F)F)n1)CN(c1ccc(C(C)(C)O)nc1)C2=O` [Example 326, 2-[6-(2-hydroxypropan-2-yl)pyridin-3-yl]-6-methyl-4-[2-(2,2,2-trifluoroethoxy)phenyl]-2,3-dihydro-1H-pyrrolo[3,4-c]pyridin-1-one], the inhibition at 10 µM is reported as 99%.
With `O=C1c2[nH]nc(-c3ccc(F)cc3OCC(F)(F)F)c2CN1c1ccc(F)cc1` [Example 146, 5-(4-fluorophenyl)-3-[4-fluoro-2-(2,2,2-trifluoroethoxy)phenyl]-4,5-dihydropyrrolo[3,4-c]pyrazol-6(1H)-one] the inhibition at 10 µM was 55%.
For `O=C1c2ccnc(-c3ccccc3OCC(F)(F)F)c2CN1c1ccc(C2(O)CC(F)(F)C2)nc1` [Example 316, 2-[6-(3,3-difluoro-1-hydroxycyclobutyl)pyridin-3-yl]-4-[2-(2,2,2-trifluoroethoxy)phenyl]-2,3-dihydro-1H-pyrrolo[3,4-c]pyridin-1-one], the inhibition at 10 µM was 99%.
With `O=C1c2ccnc(-c3ccc(F)cc3OCC(F)(F)F)c2CN1c1ccc(F)cn1` [Example 59, 2-(5-fluoropyridin-2-yl)-4-[4-fluoro-2-(2,2,2-trifluoroethoxy)phenyl]-2,3-dihydro-1H-pyrrolo[3,4-c]pyridin-1-one] the inhibition at 10 µM was 88%.
For `O=C1C2=C(CN1c1ccc(OCC(F)(F)F)cc1)C(c1ccc(F)cc1OCC(F)(F)F)=NCCN2` [Example 176, 5-[4-fluoro-2-(2,2,2-trifluoroethoxy)phenyl]-7-[4-(2,2,2-trifluoroethoxy)phenyl]-2,3,6,7-tetrahydropyrrolo[3,4-e][1,4]diazepin-8(1H)-one], the inhibition at 10 µM was 100%.
Molecule `Cc1cc2c(c(-c3ccccc3OCC(F)(F)F)n1)CN(c1ccc(C(F)(F)C(C)(C)O)cc1)C2=O` [Example 342, 2-[4-(1,1-difluoro-2-hydroxy-2-methylpropyl)phenyl]-6-methyl-4-[2-(2,2,2-trifluoroethoxy)phenyl]-2,3-dihydro-1H-pyrrolo [3,4-c]pyridin-1-one] has an inhibition at 10 µM of 100%.
Molecule `COc1cc(C(=O)N2CCC2)ccc1-c1nccc2c1CN(c1ccc(OC(F)F)nc1)C2=O` [Example 123, 4-[4-(azetidine-1-carbonyl)-2-methoxyphenyl]-2-[6-(difluoromethoxy)pyridin-3-yl]-2,3-dihydro-1H-pyrrolo[3,4-c]pyridin-1-one] has an inhibition at 10 µM of 85%.
Work on `O=C1c2ccnc(-c3ccc(F)cc3OCC(F)(F)F)c2CN1c1ccc(C2(O)CCOC2)cn1` (racemic) [Example 256, rac-4-[4-fluoro-2-(2,2,2-trifluoroethoxy)phenyl]-2-[5-(3-hydroxyoxolan-3-yl)pyridin-2-yl]-2,3-dihydro-1H-pyrrolo[3,4-c]pyridin-1-one] yielded an inhibition at 10 µM of 97%.
Molecule `COc1cnccc1-c1nccc2c1CN(c1ccc(F)cc1)C2` [Example 170, 2-(4-fluorophenyl)-4-(3-methoxypyridin-4-yl)-2,3-dihydro-1H-pyrrolo[3,4-c]pyridine] has an inhibition at 10 µM of 88%.
With `O=C1c2cc(C3CCOCC3)nc(-c3ccc(F)cc3OCC(F)(F)F)c2CN1c1ccc(F)cc1` [Example 382, 2-(4-fluorophenyl)-4-[4-fluoro-2-(2,2,2-trifluoroethoxy)phenyl]-6-(oxan-4-yl)-2,3-dihydro-1H-pyrrolo [3,4-c]pyridin-1-one] the inhibition at 10 µM was 97%.
`O=C1c2ccnc(-c3ccc(F)cc3OCC(F)(F)F)c2CN1c1ccc(OC2COC2)cc1` [Example 106, 4-[4-fluoro-2-(2,2,2-trifluoroethoxy)phenyl]-2-{4-[(oxetan-3-yl)oxy]phenyl}-2,3-dihydro-1H-pyrrolo[3,4-c]pyridin-1-one] was tested, and the inhibition at 10 µM was 94%.
`CC(C)(O)c1ccc(N2Cc3c(ccnc3-c3ccccc3OCC(F)(F)F)C2=O)nc1` [Example 273, 2-[5-(2-hydroxypropan-2-yl)pyridin-2-yl]-4-[2-(2,2,2-trifluoroethoxy)phenyl]-2,3-dihydro-1H-pyrrolo [3,4-c]pyridin-1-one] showed an inhibition at 10 µM of 100%.
`CC(C)(C)[Si](C)(C)OC1(c2ccc(N3Cc4c(ccnc4-c4ccc(F)cc4OCC(F)(F)F)C3=O)cc2)CC1` [Example 224, 2-[4-(1-{[tert-butyl(dimethyl)silyl]oxy}-cyclopropyl)phenyl]-4-[4-fluoro-2-(2,2,2-trifluoroethoxy)phenyl]-2,3-dihydro-1H-pyrrolo[3,4-c]pyridin-1-one] showed an inhibition at 10 µM of 99%.
With `CN1CCN=C(c2ccc(F)cc2OCC(F)(F)F)C2=C1C(=O)N(c1ccc(OCC(F)(F)F)cc1)C2` [Example 179, 5-[4-fluoro-2-(2,2,2-trifluoroethoxy)phenyl]-1-methyl-7-[4-(2,2,2-trifluoroethoxy)phenyl]-2,3,6,7-tetrahydropyrrolo[3,4-e][1,4]diazepin-8(1H)-one] the inhibition at 10 µM was 91%.
`CC(C)(C)c1cc2c(c(-c3ccccc3OCC(F)(F)F)n1)CN(c1ccc(C(C)(C)O)cc1)C2=O` [Example 389, 6-tert-butyl-2-[4-(2-hydroxypropan-2-yl)phenyl]-4-[2-(2,2,2-trifluoroethoxy)phenyl]-2,3-dihydro-1H-pyrrolo[3,4-c]pyridin-1-one] was tested, and the inhibition at 10 µM was 100%.
`COc1ccccc1-c1nccc2c1CN(c1ccc(OC(F)(F)F)cc1)C2=O` [Example 3, 4-(2-methoxyphenyl)-2-[4-(trifluoromethoxy)phenyl]-2,3-dihydro-1H-pyrrolo[3,4-c]pyridin-1-one] gave an inhibition at 10 µM of 98%.
In the case of `O=C1c2cc(C3CCCCC3)nc(-c3ccc(F)cc3OCC(F)(F)F)c2CN1c1ccc(F)cc1` [Example 381, 6-cyclohexyl-2-(4-fluorophenyl)-4-[4-fluoro-2-(2,2,2-trifluoroethoxy)phenyl]-2,3-dihydro-1H-pyrrolo [3,4-c]pyridin-1-one], the inhibition at 10 µM is reported as 95%.

Source: US12528802B2, “Heterocyclic compound” (Takeda Pharmaceutical Company Limited, priority 2019, dated 2026)
